SMILES strings stand for the structures.

As a reminder, the IC50 is the midpoint of a concentration-inhibition curve.

The target in the first assay is T1, RORc ligand binding domain (Homo sapiens, UniProt P51449).
T1 construct: host or cells: E. coli
T1 sequence (P51449 269-508 limits assumed): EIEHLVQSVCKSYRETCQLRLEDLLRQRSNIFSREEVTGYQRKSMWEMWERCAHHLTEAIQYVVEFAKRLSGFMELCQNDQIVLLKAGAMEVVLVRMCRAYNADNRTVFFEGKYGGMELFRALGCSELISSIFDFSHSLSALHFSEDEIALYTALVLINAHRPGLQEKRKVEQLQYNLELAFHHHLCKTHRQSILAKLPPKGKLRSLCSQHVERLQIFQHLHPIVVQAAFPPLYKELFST
Description: In Vitro RORc Ligand Binding Assay (25-[3H]hydroxycholesterol radioligand filtration). As to conditions: In Vitro RORc Ligand Binding Assay; Table 4; read-out: RORc IC50.
As for `CC(=O)N1CCN(c2ccc(CN3[C@@H](C)CCC(c4ccccc4)S3(=O)=O)nc2)CC1` (stereo partly drawn) [Example 67, 1-{4-[6-((3S)-3-Methyl-1,1-dioxo-6-phenyl-[1,2]thiazinan-2-ylmethyl)-pyridin-3-yl]-piperazin-1-yl}-ethanone], the IC50 stood at 1540 nM.
For `C[C@H]1CCC(c2ccccc2)S(=O)(=O)N1Cc1ccc(C(=O)N2CC3COCC3C2)cc1` (stereo partly drawn) [Example 364, [4-((3S)-Methyl-1,1-dioxo-6-phenyl-[1,2]thiazinan-2-ylmethyl)-phenyl]-(tetrahydro-furo[3,4-c]pyrrol-5-yl)-methanone], the IC50 turned out to be 2920 nM.
As to `CC(=O)N1CCN(c2ccc(CN3[C@@H](C)CCC(c4cccc(C)c4)S3(=O)=O)c(F)c2)CC1` (single isomer, unassigned) [Example 193], the IC50 turned out to be 24 nM.
As for `C[C@H]1CCC(c2ccccc2)S(=O)(=O)N1Cc1ccc(OC2CCS(=O)(=O)CC2)cc1F` (single isomer, unassigned) [Example 39], the IC50 was 119 nM.
On to `COC(=O)[C@H]1CN(c2ccc(CN3[C@@H](C)CCC(c4ccccc4)S3(=O)=O)c(F)c2)CCN1C(C)=O` (stereo partly drawn) [Example 260, 1-Acetyl-4-[3-fluoro-4-((3S)-methyl-1,1-dioxo-6-phenyl-[1,2]thiazinan-2-ylmethyl)-phenyl]-piperazine-2-carboxylic acid methyl ester], for which the IC50 came out at 31 nM.
Same read-out and setting: the same measure for `C[C@H]1CCC(c2ccccc2)S(=O)(=O)N1Cc1ccc(N2CCN(C3=CC(=O)CCC3)CC2)cc1F` (stereo partly drawn) [Example 188, 3-{4-[3-Fluoro-4-((3S)-3-methyl-1,1-dioxo-6-phenyl-[1,2]thiazinan-2-ylmethyl)-phenyl]-piperazin-1-yl}-cyclohex-2-enone]: 108 nM; for `N#CCC(=O)N1CCN(c2ccc(CN3CCCCC(c4ccccc4)S3(=O)=O)c(F)c2)CC1` (single isomer, unassigned) [Example 302, 3-{4-[4-(1,1-Dioxo-7-phenyl-[1,2]thiazepan-2-ylmethyl)-3-fluoro-phenyl]-piperazin-1-yl}-3-oxo-propionitrile]: 24 nM.
In the case of `C[C@H]1CCC(c2ccccc2)S(=O)(=O)N1Cc1ccc(N2CCN(C(=O)CC#N)CC2)cc1F` (single isomer, unassigned) [Example 71], the IC50 is 41 nM.
Consider `CC(=O)N1CCN(c2ccc(CN3[C@@H](C)CCC(c4ccccc4)S3(=O)=O)c(F)c2)C[C@H]1C(N)=O` (stereo partly drawn) [Example 381, (S)-1-Acetyl-4-[3-fluoro-4-((3S)-methyl-1,1-dioxo-6-phenyl-[1,2]thiazinan-2-ylmethyl)-phenyl]-piperazine-2-carboxylic acid amide], for which the IC50 was found to be 522 nM.
`C[C@H]1CCC(c2ccccc2)S(=O)(=O)N1Cc1ccc(N2CC3(CCOC3)C2)cc1F` (single isomer, unassigned) [Example 95]: the IC50 came to 93 nM.
With `C[C@H]1CCC(c2ccccc2)S(=O)(=O)N1Cc1ccc(C(=O)N2CCC(CCNS(C)(=O)=O)CC2)cc1` (stereo partly drawn) [Example 294, N-(2-{1-[4-((3S)-Methyl-1,1-dioxo-6-phenyl-[1,2]thiazinan-2-ylmethyl)-benzoyl]-piperidin-4-yl}-ethyl)-methanesulfonamide], the IC50 was 1770 nM.
Regarding `C[C@H]1CCC(c2ccccc2)S(=O)(=O)N1Cc1ccc(C(=O)N2CC(c3cc[nH]n3)C2)cc1` (stereo partly drawn) [Example 297, [4-((3S)-Methyl-1,1-dioxo-6-phenyl-[1,2]thiazinan-2-ylmethyl)-phenyl]-[3-(1H-pyrazol-3-yl)-azetidin-1-yl]-methanone], the IC50 is 2690 nM.
For the compound `C[C@H]1CCC(c2ccccc2)S(=O)(=O)N1Cc1ccc(C(=O)NC2CC(O)C2)cc1` (stereo partly drawn) [Example 268, N-(3-Hydroxy-cyclobutyl)-4-((3S)-methyl-1,1-dioxo-6-phenyl-[1,2]thiazinan-2-ylmethyl)-benzamide], the IC50 turned out to be 3250 nM.
The same measure, in the same setting: the result for `CC(=O)N1CCN(c2ccc(CN3[C@@H](C)CCCC(c4ccccc4)S3(=O)=O)c(F)c2)CC1` (single isomer, unassigned) [Example 320] reads 1920 nM.
Same read-out and setting: the same measure for `CC(=O)N1CCN(c2ccc(CN3C4CCCC4CC(c4ccccc4)S3(=O)=O)c(F)c2)CC1` (single isomer, unassigned) [Example 248, 1-(4-(4-((2,2-dioxido-3-phenylhexahydro-cyclopenta[c][1,2]thiazin-1(3H)-yl)methyl)-3-fluorophenyl)piper-azin-1-yl)ethanone]: 7 nM; for `O=C(CO)N1CCN(c2ccc(CN3CCCCC(c4ccccc4)S3(=O)=O)c(F)c2)CC1` (single isomer, unassigned) [Example 313, 1-{4-[4-(1,1-Dioxo-7-phenyl-[1,2]thiazepan-2-ylmethyl)-3-fluoro-phenyl]-piperazin-1-yl}-2-hydroxy-ethanone]: 592 nM; for `CC1CC(=O)C=C(N2CCN(c3ccc(CN4[C@@H](C)CCC(c5ccccc5)S4(=O)=O)c(F)c3)CC2)C1` (stereo partly drawn) [Example 186, 3-{4-[3-Fluoro-4-((3S)-3-methyl-1,1-dioxo-6-phenyl-[1,2]thiazinan-2-ylmethyl)-phenyl]-piperazin-1-yl}-5-methyl-cyclohex-2-enone]: 179 nM.
Regarding `CC(=O)N1CCN(c2ccc(CN3[C@@H](C)CCC(c4cccc(Cl)c4)S3(=O)=O)c(F)c2)CC1` (single isomer, unassigned) [Example 200], the IC50 is 17 nM.
As to `C[C@H]1CCC(c2ccccc2)S(=O)(=O)N1Cc1ccc(N2CCC(c3nncn3C)CC2)cc1F` (single isomer, unassigned) [Example 137], the IC50 was determined as 2480 nM.
In the case of `C[C@H]1CCC(c2ccccc2)S(=O)(=O)N1Cc1ccc(N2CCN(C=O)CC2)cc1F` (stereo partly drawn) [Example 115, 4-[3-Fluoro-4-((3S)-3-methyl-1,1-dioxo-6-phenyl-[1,2]thiazinan-2-ylmethyl)-phenyl]-piperazine-1-carbaldehyde], the IC50 was 73 nM.
For `CO[C@@H](C)C(=O)N1CCCN(c2ccc(CN3[C@@H](C)CCC(c4ccccc4)S3(=O)=O)c(F)c2)CC1` (single isomer, unassigned) [Example 92], the IC50 was 154 nM.
The same measure, in the same setting: the same measure for `C[C@H](O)C(=O)N1CCCN(c2ccc(CN3[C@@H](C)CCC(c4ccccc4)S3(=O)=O)c(F)c2)CC1` (single isomer, unassigned) [Example 91]: 254 nM; for `CC(=O)N1CCCN(C(=O)c2ccc(CN3[C@@H](C)CCC(c4ccccc4)S3(=O)=O)cc2)CC1` (stereo partly drawn) [Example 285, 1-{4-[4-((3S)-Methyl-1,1-dioxo-6-phenyl-[1,2]thiazinan-2-ylmethyl)-benzoyl]-[1,4]diazepan-1-yl}-ethanone]: 4000 nM; for `CC(=O)N1CCN(c2ccc(CN3CCCCC(c4ccccc4)S3(=O)=O)cc2F)CC1` (single isomer, unassigned) [Example 344, 1-{4-[4-(1,1-Dioxo-7-phenyl-[1,2]thiazepan-2-ylmethyl)-2-fluoro-phenyl]-piperazin-1-yl}-ethanone]: 32 nM.
With `CS(=O)(=O)N1CCC(Nc2ccc(CN3CCCCC(c4ccccc4)S3(=O)=O)c(F)c2)CC1` (single isomer, unassigned) [Example 345, [4-(1,1-Dioxo-7-phenyl-[1,2]thiazepan-2-ylmethyl)-3-fluoro-phenyl]-(1-methanesulfonyl-piperidin-4-yl)-amine], the IC50 is 8 nM.
`CC[C@H]1CCC(c2ccccc2)S(=O)(=O)N1Cc1ccc(N2CCN(C(C)=O)CC2)cc1F` (single isomer, unassigned) [Example 194]: the IC50 came to 18 nM.
Take `CC(=O)N1CCN(c2ccc(CN3[C@@H](C)CCC(c4ccccc4)S3(=O)=O)cc2Cl)CC1` (single isomer, unassigned) [Example 163]: the IC50 was 57 nM.
For `CC(=O)N1CCN(c2ccc(CN3[C@@H](C)CCC(c4cccc(F)c4)S3(=O)=O)c(F)c2)CC1` (single isomer, unassigned) [Example 127], the IC50 worked out at 58 nM.
The same measure, in the same setting: the same measure for `C[C@H]1CCC(c2ccccc2)S(=O)(=O)N1Cc1ccc(N2CCC(n3cnnc3)CC2)cc1` (single isomer, unassigned) [Example 213]: 75 nM; for `C[C@H]1CCC(c2ccccc2)S(=O)(=O)N1Cc1ccc(N2CCCNCC2)cc1F` (single isomer, unassigned) [Example 88]: 819 nM; for `CC(=O)N1CCN(c2ccc(CN3[C@@H](C)CCC(c4ccccc4)S3(=O)=O)c(F)c2)C[C@H]1C(=O)O` (stereo partly drawn) [Example 377, (S)-1-Acetyl-4-[3-fluoro-4-((3S)-methyl-1,1-dioxo-6-phenyl-[1,2]thiazinan-2-ylmethyl)-phenyl]-piperazine-2-carboxylic acid]: 1360 nM.
On to `C[C@H]1CCC(c2ccccc2)S(=O)(=O)N1Cc1ccc(NC2CCN(S(C)(=O)=O)CC2)cc1` (stereo partly drawn) [Example 216, (1-Methanesulfonyl-piperidin-4-yl)-[4-((3S)-3-methyl-1,1-dioxo-6-phenyl-[1,2]thiazinan-2-ylmethyl)-phenyl]-amine], for which the IC50 came to 9 nM.

The assay is the same for the next values; noted with them: read-out: RORc IC50.
In the case of `C[C@H]1CCC(c2ccccc2)S(=O)(=O)N1Cc1ccc(N2C[C@@H]3[C@H](C2)[C@H]3n2cnnc2)cc1F` (stereo partly drawn) [Example 440, (1R,5S,6S)-3-[3-Fluoro-4-((3S)-methyl-1,1-dioxo-6-phenyl-[1,2]thiazinan-2-ylmethyl)-phenyl]-6-[1,2,4]triazol-4-yl-3-aza-bicyclo[3.1.0]hexane], the IC50 was found to be 12 nM.
Consider `C[C@H]1CCC(c2ccccc2)S(=O)(=O)N1Cc1ccc(C(=O)NC2CCC(O)C2)cc1` (single isomer, unassigned) [Example 411], for which the IC50 was 3520 nM.
For `C[C@H]1CCC(c2ccccc2)S(=O)(=O)N1Cc1ccc(N2CC(n3cnnc3)C2)cc1F` (single isomer, unassigned) [Example 429], the IC50 turned out to be 316 nM.
As to `C[C@H]1CCC(c2ccccc2)S(=O)(=O)N1Cc1ccc(OCC2(C)COC2)cc1` (stereo partly drawn) [Example 448, (3S)-Methyl-2-[4-(3-methyl-oxetan-3-ylmethoxy)-benzyl]-6-phenyl-[1,2]thiazinane 1,1-dioxide], the IC50 came out at 656 nM.

Values taken from patent US9115101B2 (Genentech, Inc., priority 2012, dated 2015).
